Experimental data: paper PMC9138141, “Design, Spectral Characteristics, Photostability, and Possibilities for Practical Application of BODIPY FL-Labeled Thioterpenoid” (Bioengineering, 2022)
Like-named read-outs stand apart in the source and are kept apart here.

Columns and labels:
[1] = test system: laboratory mice erythrocytes; test: Hemolytic activity (erythrotoxicity); type: cell-based; details: 20 µM, entire incubation period 5 h, 37 °C, PBS pH 7.4
Procedure: A 0.5% (v/v) suspension of laboratory mice erythrocytes in phosphate-buffered saline (PBS, pH 7.4) was used. The hemolytic activity (erythrotoxicity) of the compounds 2 and 6 was assessed by the degree of erythrocyte hemolysis 1, 3, and 5 h after the addition of solutions of the test compounds in DMSO (final concentration 20 μM). The erythrocyte suspension was incubated in a thermostatic shaker Biosan ES-20 with slow stirring at 37 °C temperature for 5 h. After 1, 3, and 5 h, an aliquot was taken, centrifuged, the degree of hemolysis was determined by the hemoglobin content in the supernatant on a Thermo Spectromic Genesys 20 spectrophotometer at λ = 541 nm. The percentage of hemolysis was calculated relative to the total hemolysis of the sample.

[2] = test system: laboratory mice erythrocytes; test: Penetration into RBC (fluorescence of hemolysates and of residual medium); type: cell-based; details: 20 μM, 10, 30, 60 min incubation, RBC washed three times with PBS
Procedure: To assess the rate of penetration of the BODIPY 2 and its conjugate with a thioterpenoid 6 into RBC, the compounds were added to a suspension of erythrocytes (final concentration 20 μM) and incubated in a thermostatic shaker Biosan ES-20 with slow stirring at 37 °C. After 10, 30, and 60 min, an aliquot was taken and centrifuged to separate erythrocytes from the incubation medium containing the BODIPY 2 or conjugate 6. Erythrocytes were washed three times with PBS, hemolyzed by adding H2O, DMSO was added, and the fluorescence spectra of hemolysates were studied using a Fluorat-02-Panorama spectrofluorometer (Lumex, Saint Petersburg, Russia). The binding of the BODIPY 2 or conjugate 6 to cells was judged from the fluorescence intensity of the corresponding compounds in hemolysates. DMSO was added to the medium (PBS) remaining after cell incubation, and the corresponding fluorescence spectra were also analyzed. Its intensity was used to judge the residual content of the studied compounds in PBS.

[3] = Photobleaching (photodegradation) under UV irradiation at 365 nm; type: physicochemical; details: for kobs∙106 of photodegradation / half-life: UV 365 nm; for half-life: read-out: t1/2 of photodegradation (converted)
Procedure: The photofading was carried out in quartz cells. The BODIPY solutions in cyclohexane (toluene, 1-octanol, DMSO with c = ~1·10^−5 mol·L^−1) were irradiated with monochromatic light (mercury lamp 250 W with a light filter Carl Zeiss JENA, at λ = 365 nm and room temperature). The area of the light flux was 2.02 cm^2 at a specific power W365 = 4.04 mW·cm^−2 of the UV lamp. The irreversible bleaching of the luminophores at the absorption peak was monitored as a function of time. The EAS of the dye solution was recorded at equal intervals of irradiation (through 5–20 min) on a spectrofluorometer SM2203 in the 300–600 nm wavelength range. The half-life (t1/2) was defined as the time during which the chromophore is destroyed by 50%. The error in determining of t1/2 is 3–5%.
The observed photooxidation rate constants (kobs) were determined by the equation ln(At/A0) = kobs∙t, where A0 and At are the initial and current optical density at the maximum of the long-wavelength absorption band, respectively, and t is the time of irradiation of the sample with UV light.

[4] = Electronic absorption spectra in organic solvents; type: physicochemical
Procedure: (§1) The absorption and emission spectra of dyes solutions (in the range of 10^−6 to 10^−5 M) were recorded on CM 2203 spectrofluorometer (SOLAR) in a 10 mm of absorbing layer thickness at T = 25 ± 0.1 °C. The fluorescence quantum yield (φ), the fluorescence lifetime (τ), the rate constants of radiative processes (krad), and-radiative deactivation (knr) were obtained to use by the standard procedure. The fluorescence quantum yields (φ) of compounds were measured using the standard method (using standard Rhodamine 6G). The φ and τ errors were 10–15 %. The Stokes shift ( ΔλSt ) was calculated by the formula: […]

[5] = Luminescent characteristics (fluorescence) in organic solvents; type: physicochemical; details: for λmaxfl: λex 470 nm
Procedure: as §1

[6] = range over the solvents studied

Q: For `COC(=O)CCCC1=C2C(C)=CC(C)=[N+]2[B-](F)(F)n2c(C)cc(C)c21` [Compound 2], which “hemolysis of RBC (erythrotoxicity)” value [1] is on record?
A: did not exceed the spontaneous level

Q: What about the “penetration into erythrocytes (fluorescence of RBC hemolysates)” value [2] of the same compound?
A: practically not detected in hemolysates

Q: And the “kobs∙106 of photodegradation” value ([3]; 1-octanol)?
A: 3.1 ± 0.3 s⁻¹

Q: And the “kobs∙106 of photodegradation” value ([3]; DMSO)?
A: 27.7 ± 0.3 s⁻¹

Q: What about the “kobs∙106 of photodegradation” value ([3]; cyclohexane) of the same compound?
A: 2.9 ± 0.3 s⁻¹

Q: What about the half-life ([3]; solution in 1-octanol, 1-octanol) of the same compound?
A: 82.3 h

Q: And the half-life ([3]; solution in DMSO, DMSO)?
A: 8.3 h

Q: What about the half-life ([3]; solution in cyclohexane, cyclohexane) of the same compound?
A: 88.6 h

Q: And the half-life ([3]; solution in toluene, toluene)?
A: 40.5 h

Q: And the “half-life increase / photodestruction rate constant decrease compared to 7” value ([3]; studied solvents)?
A: 1.5–2.2 times

Q: What about the “kobs∙106 of photodegradation” value ([3]; toluene) of the same compound?
A: 5.5 ± 0.3 s⁻¹

Q: And the “ε, molar absorption coefficient” value ([4]; 1-butanol)?
A: 74136 L/mol/cm

Q: What about the “λmaxabs S0→S1” value ([4]; 1-butanol) of the same compound?
A: 498 nm

Q: What about the “λmaxabs S0→S2” value ([4]; 1-butanol) of the same compound?
A: 356–363 nm

Q: And the “ε, molar absorption coefficient” value ([4]; 1-octanol)?
A: 72443 L/mol/cm

Q: And the “λmaxabs S0→S1” value ([4]; 1-octanol)?
A: 499 nm

Q: And the “λmaxabs S0→S2” value ([4]; 1-octanol)?
A: 357–364 nm

Q: What about the “ε, molar absorption coefficient” value ([4]; 1-propanol) of the same compound?
A: 74948 L/mol/cm

Q: And the “λmaxabs S0→S1” value ([4]; 1-propanol)?
A: 498 nm

Q: What about the “λmaxabs S0→S2” value ([4]; 1-propanol) of the same compound?
A: 359–369 nm

Q: And the “ε, molar absorption coefficient” value ([4]; DMF)?
A: 76709 L/mol/cm

Q: And the “λmaxabs S0→S1” value ([4]; DMF)?
A: 497 nm

Q: What about the “λmaxabs S0→S2” value ([4]; DMF) of the same compound?
A: 357–363 nm

Q: And the “ε, molar absorption coefficient” value ([4]; DMSO)?
A: 66069 L/mol/cm

Q: What about the “λmaxabs S0→S1” value ([4]; DMSO) of the same compound?
A: 497 nm

Q: What about the “λmaxabs S0→S2” value ([4]; DMSO) of the same compound?
A: 356–363 nm

Q: What about the “ε, molar absorption coefficient” value ([4]; chloroform) of the same compound?
A: 74131 L/mol/cm

Q: And the “λmaxabs S0→S1” value ([4]; chloroform)?
A: 501 nm

Q: And the “λmaxabs S0→S2” value ([4]; chloroform)?
A: 358–363 nm

Q: What about the “ε, molar absorption coefficient” value ([4]; cyclohexane) of the same compound?
A: 87724 L/mol/cm

Q: What about the “λmaxabs S0→S1” value ([4]; cyclohexane) of the same compound?
A: 500 nm

Q: And the “λmaxabs S0→S2” value ([4]; cyclohexane)?
A: 359–364 nm

Q: And the “ε, molar absorption coefficient” value ([4]; ethanol)?
A: 72444 L/mol/cm

Q: What about the “λmaxabs S0→S1” value ([4]; ethanol) of the same compound?
A: 497 nm

Q: What about the “λmaxabs S0→S2” value ([4]; ethanol) of the same compound?
A: 356–361 nm

Q: What about the “ε, molar absorption coefficient” value ([4]; toluene) of the same compound?
A: 79432 L/mol/cm

Q: And the “λmaxabs S0→S1” value ([4]; toluene)?
A: 501 nm

Q: What about the “λmaxabs S0→S2” value ([4]; toluene) of the same compound?
A: 360–368 nm

Q: And the “ΔλSt, Stokes shift” value ([5]; 1-butanol)?
A: 15 nm

Q: What about the “φ, fluorescence quantum yield” value ([5]; 1-butanol) of the same compound?
A: 0.966

Q: And the λmaxfl ([5]; 1-butanol)?
A: 513 nm

Q: And the “ΔλSt, Stokes shift” value ([5]; 1-octanol)?
A: 16 nm

Q: And the “φ, fluorescence quantum yield” value ([5]; 1-octanol)?
A: 0.989

Q: What about the λmaxfl ([5]; 1-octanol) of the same compound?
A: 515 nm

Q: And the “ΔλSt, Stokes shift” value ([5]; 1-propanol)?
A: 16 nm

Q: What about the “φ, fluorescence quantum yield” value ([5]; 1-propanol) of the same compound?
A: 0.956

Q: And the λmaxfl ([5]; 1-propanol)?
A: 514 nm

Q: And the “ΔλSt, Stokes shift” value ([5]; DMF)?
A: 15 nm

Q: What about the “φ, fluorescence quantum yield” value ([5]; DMF) of the same compound?
A: 0.836

Q: What about the λmaxfl ([5]; DMF) of the same compound?
A: 512 nm

Q: And the “ΔλSt, Stokes shift” value ([5]; DMSO)?
A: 15 nm

Q: And the “φ, fluorescence quantum yield” value ([5]; DMSO)?
A: 0.769

Q: What about the λmaxfl ([5]; DMSO) of the same compound?
A: 512 nm

Q: What about the “ΔλSt, Stokes shift” value ([5]; chloroform) of the same compound?
A: 15 nm

Q: What about the “φ, fluorescence quantum yield” value ([5]; chloroform) of the same compound?
A: 0.908

Q: And the λmaxfl ([5]; chloroform)?
A: 516 nm

Q: And the “ΔλSt, Stokes shift” value ([5]; cyclohexane)?
A: 12 nm

Q: What about the “φ, fluorescence quantum yield” value ([5]; cyclohexane) of the same compound?
A: 0.999

Q: And the λmaxfl ([5]; cyclohexane)?
A: 512 nm

Q: And the fluorescence quenching ([5]; electron-donating media)?
A: 16–24%

Q: And the “ΔλSt, Stokes shift” value ([5]; ethanol)?
A: 13 nm

Q: And the “φ, fluorescence quantum yield” value ([5]; ethanol)?
A: 0.910

Q: What about the “increase of fluorescence quantum yield in the homologous series of alcohols” value ([5]; ethanol, 1-propanol, 1-butanol, 1-octanol) of the same compound?
A: ~ 8%

Q: What about the λmaxfl ([5]; ethanol) of the same compound?
A: 510 nm

Q: What about the “constants of radiative processes (krad)” value [5, 6] of the same compound?
A: 5.96–8.33 × 10^7 s^−1

Q: And the fluorescence lifetime [5, 6]?
A: 10.2–16.0 ns

Q: And the “ΔλSt, Stokes shift” value ([5]; toluene)?
A: 17 nm

Q: And the “φ, fluorescence quantum yield” value ([5]; toluene)?
A: 0.991

Q: And the λmaxfl ([5]; toluene)?
A: 518 nm

Q: What about the “emission band maxima λmaxfl, range” value ([5]; λex = 470 nm, all solvents) of the same compound?
A: 510–519 nm
